US11957759B1, “Rapidly accelerated fibrosarcoma (RAF) degrading compounds and associated methods of use” (Arvinas Operations, Inc., priority 2022, dated 2024)

Legend:
B-RAF V600E = target: T1, B-RAF V600E (Homo sapiens, UniProt P15056, V600E); test: Target protein degradation, assay C: T-Rex 293 cells, HA-BRAF_V600E, 384 well format; format: cell-based; conditions: T-Rex 293 HA-BRAF_V600E cells, 24 hours, Examples 83-269; for DC50: Assay C; for Dmax: T-REx-293, Assay C
T1 construct: expressed in transfected cells; host or cells: T-Rex 293 cells (Invitrogen #R71007)
T1 sequence (P15056 whole entry V600E): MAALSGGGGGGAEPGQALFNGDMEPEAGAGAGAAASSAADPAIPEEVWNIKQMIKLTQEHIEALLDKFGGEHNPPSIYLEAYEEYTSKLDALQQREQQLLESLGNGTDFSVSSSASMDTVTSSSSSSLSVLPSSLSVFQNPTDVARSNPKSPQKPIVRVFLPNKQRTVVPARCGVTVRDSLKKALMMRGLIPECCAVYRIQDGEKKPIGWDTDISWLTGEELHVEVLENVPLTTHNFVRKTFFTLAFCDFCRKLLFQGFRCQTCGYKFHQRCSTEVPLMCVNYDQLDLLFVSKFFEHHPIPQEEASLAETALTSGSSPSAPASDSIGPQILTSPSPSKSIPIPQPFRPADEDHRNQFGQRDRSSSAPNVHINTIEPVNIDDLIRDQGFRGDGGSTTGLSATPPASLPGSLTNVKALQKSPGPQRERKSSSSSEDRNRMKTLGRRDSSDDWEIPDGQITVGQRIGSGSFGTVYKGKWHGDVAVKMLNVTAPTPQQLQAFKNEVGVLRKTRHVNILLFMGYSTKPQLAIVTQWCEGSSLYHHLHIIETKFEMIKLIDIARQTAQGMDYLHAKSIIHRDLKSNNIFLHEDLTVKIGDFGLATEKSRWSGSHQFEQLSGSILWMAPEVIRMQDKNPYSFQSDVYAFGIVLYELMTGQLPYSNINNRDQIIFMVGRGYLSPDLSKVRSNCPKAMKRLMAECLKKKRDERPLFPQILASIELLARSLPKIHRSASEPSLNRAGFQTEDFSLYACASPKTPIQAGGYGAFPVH
Procedure, shortened: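 T-Rex 293 cells stably expressing doxycycline-induced (1 ng/mL) HA-BRAF V600E were treated 24 h at 37 °C with compound (300 nM–5 pM, 11 points, 0.5% DMSO). HA immunofluorescence was quantified by high-content imaging to give DC50 and Dmax (% of control); nuclei counts versus DMSO gauged toxicity.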

B-RAF G466V = target: T2, B-RAF G466V (Homo sapiens, UniProt P15056, G466V); test: Target protein degradation, assay D: T-Rex 293 cells, HA-BRAF_G466V, 384 well format; format: cell-based; conditions: T-Rex 293 HA-BRAF_G466V cells, 24 hours, Examples 83-269; for Dmax: T-REx-293, Assay D
T2 construct: expressed in transfected cells; host or cells: T-Rex 293 cells (Invitrogen #R71007)
T2 sequence (P15056 whole entry G466V): as the sequence (P15056 whole entry V600E) above, with G466V, E600V counted along it
Procedure, shortened: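 T-Rex 293 cells stably expressing doxycycline-induced (1 ng/mL) HA-BRAF G466V treated 24 h at 37 °C with PROTACs, 11-point 1:3 dilution, 300 nM to 5 pM final, 0.5% DMSO. Fixed cells immunostained for HA and imaged by high-content microscopy; DC50 and Dmax (% of control) derived, toxicity from nuclei counts versus DMSO.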

**Q.** How did the DC50 (B-RAF V600E) turn out when `N#Cc1c(NS(=O)(=O)N2CC[C@@H](F)C2)ccc(F)c1Oc1ccc2ncn(-c3ccc(N4CCC(CCN5CCN(c6ccc7c(c6)C(=O)N(C6CCC(=O)NC6=O)C7=O)CC5)CC4)nc3)c(=O)c2c1` (stereo partly drawn) [Example 163, (3R)-N-{2-cyano-3-[(3-{6-[4-(2-{4-[2-(2,6-dioxopiperidin-3-yl)-1,3-dioxo-2,3-dihydro-1H-isoindol-5-yl]piperazin-1-yl}ethyl)piperidin-1-yl]pyridin-3-yl}-4-oxo-3,4-dihydroquinazolin-6-yl)oxy]-4-fluorophenyl}-3-fluoropyrrolidine-1-sulfonamide] was run?
**A.** 50 to 500 nM

**Q.** What about the Dmax (B-RAF V600E) of the same molecule?
**A.** 35 to 70%

**Q.** And the DC50 (B-RAF G466V; Assay D)?
**A.** 10 to 30 nM

**Q.** And the Dmax (B-RAF G466V)?
**A.** ≤ 35%

**Q.** Which results are given for `N#Cc1c(NS(=O)(=O)N2CC[C@@H](F)C2)ccc(F)c1Oc1ccc2ncn(-c3ccc(N4CCN(CCCOc5ccc6c(c5)C(=O)N(C5CCC(=O)NC5=O)C6=O)CC4)nc3)c(=O)c2c1` (stereo partly drawn) [Example 164, (3R)-N-{2-cyano-3-[(3-{6-[4-(3-{[2-(2,6-dioxopiperidin-3-yl)-1,3-dioxo-2,3-dihydro-1H-isoindol-5-yl]oxy}propyl)piperazin--1-yl]pyridin-3-yl}-4-oxo-3,4-dihydroquinazolin-6-yl)oxy]-4-fluorophenyl}-3-fluoropyrrolidine-1-sulfonamide]?
**A.** DC50 (B-RAF V600E): 50 to 500 nM; Dmax (B-RAF V600E): 35 to 70%; DC50 (B-RAF G466V; Assay D): ≤ 1 nM; Dmax (B-RAF G466V): ≤ 35%

**Q.** What does the source list for `N#Cc1c(NS(=O)(=O)N2CC[C@@H](F)C2)ccc(F)c1Oc1ccc2ncn(-c3ccc(N4CCC5(CC4)CN(c4cccc6c4CN(C4CCC(=O)NC4=O)C6=O)C5)nc3)c(=O)c2c1` (stereo partly drawn) [Example 165, (3R)-N-(2-cyano-3-{[3-(6-{2-[2-(2,6-dioxopiperidin-3-yl)-1-oxo-2,3-dihydro-1H-isoindol-4-yl]-2,7-diazaspiro[3.5]nonan-7-yl}pyridin-3-yl)-4-oxo-3,4-dihydroquinazolin-6-yl]oxy}-4-fluorophenyl)-3-fluoropyrrolidine-1-sulfonamide]?
**A.** DC50 (B-RAF V600E): ≤ 5 nM; Dmax (B-RAF V600E): ≤ 35%; DC50 (B-RAF G466V; Assay D): > 30 nM; Dmax (B-RAF G466V): ≤ 35%

**Q.** How did the DC50 (B-RAF V600E) turn out when `CN(CC1CCN(c2ccc(-n3cnc4ccc(Oc5c(F)ccc(NS(=O)(=O)N6CC[C@@H](F)C6)c5C#N)cc4c3=O)cn2)CC1)[C@H]1C[C@H](Oc2ccc3c(c2)C(=O)N([C@@H]2CCC(=O)NC2=O)C3=O)C1` [Example 166, (3R)-N-{2-cyano-4-fluoro-3-[(3-{6-[4-({methyl[(1r,3r)-3-{[2-(2,6-dioxopiperidin-3-yl)-1,3-dioxo-2,3-dihydro-1H-isoindol-5-yl]oxy}cyclobutyl]amino}methyl)piperidin-1-yl]pyridin-3-yl}-4-oxo-3,4-dihydroquinazolin-6-yl)oxy]phenyl}-3-fluoropyrrolidine-1-sulfonamide] was run?
**A.** > 500 nM

**Q.** And the “B-RAF G466V DMax (%)” value (B-RAF G466V; Assay D)?
**A.** C (C ≤ 35)

**Q.** And the DC50 (B-RAF G466V; Assay D)?
**A.** 1 to 10 nM

**Q.** With `N#Cc1c(NS(=O)(=O)N2CC[C@@H](F)C2)ccc(F)c1Oc1ccc2ncn(-c3ccc(N4CCC(CCCN5CCN(c6ccc7c(c6)C(=O)N(C6CCC(=O)NC6=O)C7=O)CC5)CC4)nc3)c(=O)c2c1` (stereo partly drawn) [Example 167, (3R)-N-{2-cyano-3-[(3-{6-[4-(3-{4-[2-(2,6-dioxopiperidin-3-yl)-1,3-dioxo-2,3-dihydro-1H-isoindol-5-yl]piperazin-1-yl}propyl)piperidin-1-yl]pyridin-3-yl}-4-oxo-3,4-dihydroquinazolin-6-yl)oxy]-4-fluorophenyl}-3-fluoropyrrolidine-1-sulfonamide] as the molecule, how does the DC50 (B-RAF V600E) read?
**A.** 50 to 500 nM

**Q.** What about the Dmax (B-RAF V600E) of the same molecule?
**A.** 35 to 70%

**Q.** What about the DC50 (B-RAF G466V; Assay D) of the same molecule?
**A.** 1 to 10 nM

**Q.** What about the Dmax (B-RAF G466V) of the same molecule?
**A.** ≤ 35%

**Q.** With `N#Cc1c(NS(=O)(=O)N2CC[C@@H](F)C2)ccc(F)c1Oc1ccc2ncn(-c3ccc(N4CCN(c5cc(N6CCN(c7ccc8c(c7)C(=O)N(C7CCC(=O)NC7=O)C8=O)CC6)ncn5)CC4)nc3)c(=O)c2c1` (stereo partly drawn) [Example 168, (3R)-N-{2-cyano-3-[(3-(6-[4-(6-{4-[2-(2,6-dioxopiperidin-3-yl)-1,3-dioxo-2,3-dihydro-1H-isoindol-5-yl]piperazin-1-yl}pyrimidin-4-yl)piperazin-1-yl]pyridin-3-yl}-4-oxo-3,4-dihydroquinazolin-6-yl)oxy]-4-fluorophenyl}-3-fluoropyrrolidine-1-sulfonamide] as the molecule, how does the DC50 (B-RAF V600E) read?
**A.** 50 to 500 nM

**Q.** And the Dmax (B-RAF V600E)?
**A.** ≤ 35%

**Q.** What about the DC50 (B-RAF G466V; Assay D) of the same molecule?
**A.** 10 to 30 nM

**Q.** What about the Dmax (B-RAF G466V) of the same molecule?
**A.** 35 to 70%

**Q.** Which DC50 (B-RAF V600E) does the source give for `N#Cc1c(NS(=O)(=O)N2CC[C@@H](F)C2)ccc(F)c1Oc1ccc2ncn(-c3ccc(N4CCC(CN5CCC6(CC5)CN(c5cccc7c5CN(C5CCC(=O)NC5=O)C7=O)C6)CC4)nc3)c(=O)c2c1` (stereo partly drawn) [Example 169, (3R)-N-{2-cyano-3-[(3-{6-[4-({2-[2-(2,6-dioxopiperidin-3-yl)-1-oxo-2,3-dihydro-1H-isoindol-4-yl]-2,7-diazaspiro[3.5]nonan-7-yl}methyl)piperidin-1-yl]pyridin-3-yl}-4-oxo-3,4-dihydroquinazolin-6-yl)oxy]-4-fluorophenyl}-3-fluoropyrrolidine-1-sulfonamide] here?
**A.** 50 to 500 nM

**Q.** And the Dmax (B-RAF V600E)?
**A.** 35 to 70%

**Q.** What about the DC50 (B-RAF G466V; Assay D) of the same molecule?
**A.** 1 to 10 nM

**Q.** What about the Dmax (B-RAF G466V) of the same molecule?
**A.** ≤ 35%

**Q.** `N#Cc1c(NS(=O)(=O)N2CC[C@@H](F)C2)ccc(F)c1Oc1ccc2ncn(-c3ccc(N4CC(CN5CCN(C6CCN(c7ccc8c(c7)C(=O)N(C7CCC(=O)NC7=O)C8=O)CC6)CC5)C4)nc3)c(=O)c2c1` (stereo partly drawn) [Example 170, (3R)-N-(2-cyano-3-{[3-(6-{3-[(4-{1-[2-(2,6-dioxopiperidin-3-yl)-1,3-dioxo-2,3-dihydro-1H-isoindol-5-yl]piperidin-4-yl}piperazin-1-yl)methyl]azetidin-1-yl}pyridin-3-yl)-4-oxo-3,4-dihydroquinazolin-6-yl]oxy}-4-fluorophenyl)-3-fluoropyrrolidine-1-sulfonamide] was tested. Which DC50 (B-RAF V600E) did it give?
**A.** 5 to 50 nM

**Q.** And the Dmax (B-RAF V600E)?
**A.** ≤ 35%

**Q.** What about the DC50 (B-RAF G466V; Assay D) of the same molecule?
**A.** 1 to 10 nM

**Q.** And the Dmax (B-RAF G466V)?
**A.** ≤ 35%

**Q.** With `N#Cc1c(NS(=O)(=O)N2CC[C@@H](F)C2)ccc(F)c1Oc1ccc2ncn(-c3ccc(N4CCC(CN5CC6(C5)CN(c5ccc7c(c5)C(=O)N(C5CCC(=O)NC5=O)C7=O)C6)CC4)nc3)c(=O)c2c1` (stereo partly drawn) [Example 171, (3R)-N-{2-cyano-3-[(3-{6-[4-({6-[2-(2,6-dioxopiperidin-3-yl)-1,3-dioxo-2,3-dihydro-1H-isoindol-5-yl]-2,6-diazaspiro[3.3]heptan-2-yl}methyl)piperidin-1-yl]pyridin-3-yl}-4-oxo-3,4-dihydroquinazolin-6-yl)oxy]-4-fluorophenyl}-3-fluoropyrrolidine-1-sulfonamide] as the molecule, how does the DC50 (B-RAF V600E) read?
**A.** 50 to 500 nM

**Q.** And the Dmax (B-RAF V600E)?
**A.** 35 to 70%

**Q.** And the DC50 (B-RAF G466V; Assay D)?
**A.** 1 to 10 nM

**Q.** What about the Dmax (B-RAF G466V) of the same molecule?
**A.** 35 to 70%

**Q.** For `N#Cc1c(NS(=O)(=O)N2CC[C@@H](F)C2)ccc(F)c1Oc1ccc2ncn(-c3ccc(N4CC5(CN(CC6CCN(c7ccc8c(c7)C(=O)N(C7CCC(=O)NC7=O)C8=O)CC6)C5)C4)nc3)c(=O)c2c1` (stereo partly drawn) [Example 172, (3R)-N-{2-cyano-3-[(3-{6-[6-({1-[2-(2,6-dioxopiperidin-3-yl)-1,3-dioxo-2,3-dihydro-1H-isoindol-5-yl]piperidin-4-yl}methyl)-2,6-diazaspiro[3.3]heptan-2-yl]pyridin-3-yl}-4-oxo-3,4-dihydroquinazolin-6-yl)oxy]-4-fluorophenyl}-3-fluoropyrrolidine-1-sulfonamide], which DC50 (B-RAF V600E) is on record?
**A.** 50 to 500 nM

**Q.** What about the Dmax (B-RAF V600E) of the same molecule?
**A.** ≤ 35%

**Q.** What about the DC50 (B-RAF G466V; Assay D) of the same molecule?
**A.** 1 to 10 nM

**Q.** What about the Dmax (B-RAF G466V) of the same molecule?
**A.** ≤ 35%
